{
  "source": "patent US6677157B1",
  "about": "“Method of diagnosis of prostate cancer” (Uropath Pty Ltd., A.C.N., priority 1998, dated 2004)",
  "tested_on": "mixed lymphocyte reaction",
  "assay": "Effect of keratan sulphate on a mixed lymphocyte reaction",
  "type": "cell-based",
  "conditions": "20 μg/ml",
  "method": "The function of keratan sulphate in prostate tissue is unknown. It is known, however, that GAG compounds are important in the prevention of autoimmune bonne diseases (forms of arthritis). In order to determine whether keratan sulphate may have an immune regulatory effect it was assessed by intorducing it into a mixed lymphocyte reaction. […] At markedly diluted lymphocyte ratios of >270:1 no effect was evident (see FIG. 2).",
  "data": [
    {"substance": "keratan sulphate", "values": [
      {"measurement": "reduction of mixed lymphocyte reaction", "setting": "lymphocyte ratios of 10, 30 and 90:1", "result": 50, "unit": "%"},
      {"measurement": "effect on mixed lymphocyte reaction", "setting": "markedly diluted lymphocyte ratios of >270:1", "result": "no effect"}
    ]}
  ]
}
